{"source": "patent US20050181459A1", "about": "“Method for mapping and eliminating T cell epitopes” (priority 2002, published 2005)", "key": {"[1]": {"test_system": "PBMC", "assay": "T cell activation assay (time course) of IFNα peptides, PBMC from 20 healthy donors and 20 IFN α2b-treated HCV patients", "format": "cell-based, human", "conditions": "20 healthy donors and 20 HCV patients previously treated with IFN α2b; 6-9 days culture; 3H-thymidine"}, "[2]": {"assay": "Solubility of IFNα peptides", "format": "physicochemical", "conditions": "in the T cell assay of Example 6"}}, "note": "Where no end group is shown, it is not given here.", "data": [{"sequence": "SILAVRKYFQRITLY (Potential T-cell Epitopes) [peptide 39]", "values": [{"measurement": "percentage of donors whose PBMC responded to a peptide (SI greater than about 1.95)", "setting": "[1]", "result": 25, "unit": "%"}]}, {"sequence": "KEDSILAVRKYFQRI (Potential T-cell Epitopes) [compound 38]", "values": [{"measurement": "percentage of donors whose PBMC responded to a peptide (SI greater than about 1.95)", "setting": "[1]", "result": 15, "unit": "%"}]}, {"sequence": "VLHEMIQQIFNLFST [compound 19, VLHEMIQQIFNLFST]", "values": [{"measurement": "solubility of peptide", "setting": "[2]", "result": "insoluble"}]}, {"sequence": "RRISLFSCLKDRHDF (Potential T-cell Epitopes) [compound 8]", "values": [{"measurement": "percentage of donors whose PBMC responded to a peptide (SI greater than about 1.95)", "setting": "[1]", "result": 15, "unit": "%"}]}, {"sequence": "EMIQQIFNLFSTKDS [compound 20, EMIQQIFNLFSTKDS]", "values": [{"measurement": "solubility of peptide", "setting": "[2]", "result": "insoluble"}]}, {"sequence": "FNLFSTKDSSAAWDE (Potential T-cell Epitopes) [peptide 22]", "values": [{"measurement": "percentage of donors whose PBMC responded to a peptide (SI greater than about 1.95)", "setting": "[1]", "result": 15, "unit": "%"}]}, {"sequence": "SLFSCLKDRHDFGFP (Potential T-cell Epitopes) [compound 9]", "values": [{"measurement": "percentage of donors whose PBMC responded to a peptide (SI greater than about 1.95)", "setting": "[1]", "result": 15, "unit": "%"}]}]}
